This note sets out measurements from patent EP0329223A2, “Acetylenic and triyne cyclic carbonates” (Merck & Co., Inc., priority 1988, dated 1989).

Converted amounts (≈) assume the structure as drawn. Like-named read-outs stand apart in the source and are kept apart here.

Assay [1] concerns Candida albicans MY 1055. Description: Antifungal assay, minimum inhibitory concentration. Type of assay: cell-based. Particulars: lowest concentration that inhibits visible growth, Yeast Nitrogen Base/0.5% glucose, 37°C for 18 hours, starting inoculum 3-5 x 10⁻⁴ CFU/ml. As for the experimental part: Antifungal activity was determined against Candida albicans MY 1055, a yeast strain maintained by Merck and Co; Rahway, New Jersey. Minimum inhibitory concentrations were determined using a starting inoculum of […]. The medium was Yeast Nitrogen Base/0.5% glucose. Test compounds were dissolved in a minimum amount of 50% aqueous ethanol and diluted to final concentrations with yeast medium. Samples were incubated at 37°C for 18 hours. The minimum inhibitory concentration (MIC), reported in µg/ml, is the lowest concentration of test compound that inhibits visible growth.

Assay [2] concerns the target T1, Acetoacetyl-coenzyme A thiolase (Rattus norvegicus, UniProt Q5XI22).
T1 construct: prepared from the livers of Sprague Dawley rats treated in the diet for one week with 0.075% lovastatin to induce the enzyme; from tissue; host or cells: liver of lovastatin-treated Sprague Dawley rats
Description: Acetoacetyl-coenzyme A thiolase inhibition, coupled spectrophotometric assay (NADH oxidation at 340 nm). Type of assay: biochemical, Sprague Dawley rats. The method, then:
Acetoacetyl-coenzyme A thiolase was prepared from the livers of Sprague Dawley rats treated in the diet for one week with 0.075% lovastatin to induce the enzyme. […] The 0.06 M eluate described by Mehrabian et al. contained the acetoacetyl-coenzyme A thiolase. The isolate was concentrated by ammonium sulfate precipitation, dissolved in the buffer used for elution, and stored at -70°C.
Reaction was measured at room temperature for a time period necessary to produce a measurable reaction rate. An IC₅₀, the concentration that inhibits 50% of the acetoacetyl-coenzyme A thiolase activity, was determined for each test compound. […]

Setting [3] is: enzyme from rat liver (lovastatin-induced), pH 7.5, room temperature, 2.85 mM acetoacetyl-coenzyme A, read-out: IC₅₀.

T1 sequence (Q5XI22 whole entry): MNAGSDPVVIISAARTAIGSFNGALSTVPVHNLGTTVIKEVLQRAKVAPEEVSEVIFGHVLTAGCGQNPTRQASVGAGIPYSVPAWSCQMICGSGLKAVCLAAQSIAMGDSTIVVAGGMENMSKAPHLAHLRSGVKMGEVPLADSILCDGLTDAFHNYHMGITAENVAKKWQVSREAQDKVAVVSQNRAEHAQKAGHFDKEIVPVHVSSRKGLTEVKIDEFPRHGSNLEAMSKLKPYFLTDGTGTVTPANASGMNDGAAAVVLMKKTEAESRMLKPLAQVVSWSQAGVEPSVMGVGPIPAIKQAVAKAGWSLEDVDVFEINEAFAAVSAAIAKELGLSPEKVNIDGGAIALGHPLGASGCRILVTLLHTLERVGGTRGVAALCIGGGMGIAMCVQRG

In assay [1], “5-(1(R)-Methoxy-2,4,6-octatriynyl)-2-oxo-4(S),5(S)-1,3 dioxolane-4-heptanoic acid, methyl ester [Ex. 13]” had a minimal inhibitory concentration (MIC) of 5 µg/mL. Besides, the IC50 in assay [2] (setting [3]) turned out to be 0.56 µM.

For `COC(=O)CCCCCC[C@@H]1OC(=O)O[C@H]1C(O)C#CC#CC#C[Si](C)(C)C` (single isomer, unassigned) [Ex. 6], the minimal inhibitory concentration (MIC) in assay [1] (read-out: MIC) is 0.6 µg/mL (≈ 1.48 µM). Further, the IC50 in assay [2] worked out at 0.99 µM. In the case of `C#CC#CC#C[C@@H](OC)[C@@H]1OC(=O)O[C@H]1CCCCCCC(=O)OC` [Ex. 20, 5-(1(R)-Methoxy-2,4,6-heptatriynyl)-2-oxo-4(S),5(S)-1,3-dioxolane-4 heptanoic acid, methyl ester], the IC50 in assay [2] (setting [3]) is 0.046 µM.

As to `COC(=O)CCCCCC[C@@H]1OC(=O)O[C@H]1C(O)C#CC#CC#C[Si](C)(C)C` (single isomer, unassigned) [Ex. 5], in assay [1] (read-out: MIC), the minimum inhibitory concentration (MIC) stood at 0.078 µg/mL (≈ 0.193 µM). The IC50 in assay [2] came out at 0.062 µM.

On to `C#CC#CC#C[C@@H](OC(C)=O)[C@@H]1OC(=O)O[C@H]1CCCCCCC(=O)OC` [Ex. 18, 5-(1(R)-(Acetyloxy)-2,4,6-heptatriynyl)-2-oxo-4(S),5(S)-1,3-dioxolane-4-heptanoic acid, methyl ester], for which, in assay [2] (setting [3]), the IC50 is 0.15 µM.

As for `C#CC#CC#C[C@@H](OC(C)=O)[C@@H]1OC(=O)O[C@H]1CCCCCCC(=O)O` [Ex. 19, 5-(1(R)-(Acetyloxy)-2,4,6-heptatriynyl)-2-oxo-4(S),5(S)-1,3-dioxolane-4-heptanoic acid], in assay [2] (setting [3]), the IC50 is 0.009 µM. Same read-out and setting: the result for `C#CC#CC#C[C@@H](O)[C@@H]1OC(=O)O[C@H]1CCCCCCC(=O)OC` [Ex. 17, 5-(1(R)-Hydroxy-2,4,6-heptatriynyl)-2-oxo-4(S),5(S)-1,3-dioxolane-4-heptanoic acid, methyl ester] reads 0.024 µM.

As usually defined, the MIC is the smallest concentration in the dilution series that meets the test's criterion for growth inhibition.
